Measured values: ChEMBL document CHEMBL5316362, “Synthesis of the Purported Structure of Glyphaeaside C and Proposed Revisions to the Structures of the Glyphaeaside Alkaloids” (J Nat Prod, 2023)
Active and inactive are the calls of the source. The rule behind the calls is not given here.

Columns and labels:
[1] = Inhibition of rice alpha glucosidase; set-up: species or system Oryza sativa
[2] = Inhibition of rat intestinal maltase; type: tissue-based, Intestine
Alpha-glucosidase = Alpha-glucosidase (Saccharomyces cerevisiae S288c, UniProt P53341+P38158+P07265); experiment: Inhibition of yeast alpha-glucosidase; type: protein assay
[3] = biological target: Lysosomal alpha-glucosidase (Homo sapiens, UniProt P10253); experiment: Inhibition of human lysosomal alpha-glucosidase; type: subcellular, Lysosome
Prunus dulcis [4] = experiment: (§1) Inhibition of almond beta-glucosidase at 100 uM relative to control
[5] = Inhibition of Bovine liver beta-glucosidase; type: tissue-based, Bos taurus
Alpha-galactosidase = Alpha-galactosidase (Coffea arabica, UniProt Q42656); experiment: Inhibition of coffee bean alpha-galactosidase
Homo sapiens = organism: Homo sapiens; experiment: Inhibition of human lysosomal alpha-galactosidase at 100 uM realtive to control; type: subcellular; details: Lysosome
[6] = Inhibition of bovine liver beta-galactosidase; type: tissue-based, Bos taurus
[7] = biological target: T1, Alpha-mannosidase (Canavalia ensiformis) (UniProt C0HJB3); experiment: Inhibition of jack bean alpha-mannosidase at 100 uM
T1 sequence (whole entry): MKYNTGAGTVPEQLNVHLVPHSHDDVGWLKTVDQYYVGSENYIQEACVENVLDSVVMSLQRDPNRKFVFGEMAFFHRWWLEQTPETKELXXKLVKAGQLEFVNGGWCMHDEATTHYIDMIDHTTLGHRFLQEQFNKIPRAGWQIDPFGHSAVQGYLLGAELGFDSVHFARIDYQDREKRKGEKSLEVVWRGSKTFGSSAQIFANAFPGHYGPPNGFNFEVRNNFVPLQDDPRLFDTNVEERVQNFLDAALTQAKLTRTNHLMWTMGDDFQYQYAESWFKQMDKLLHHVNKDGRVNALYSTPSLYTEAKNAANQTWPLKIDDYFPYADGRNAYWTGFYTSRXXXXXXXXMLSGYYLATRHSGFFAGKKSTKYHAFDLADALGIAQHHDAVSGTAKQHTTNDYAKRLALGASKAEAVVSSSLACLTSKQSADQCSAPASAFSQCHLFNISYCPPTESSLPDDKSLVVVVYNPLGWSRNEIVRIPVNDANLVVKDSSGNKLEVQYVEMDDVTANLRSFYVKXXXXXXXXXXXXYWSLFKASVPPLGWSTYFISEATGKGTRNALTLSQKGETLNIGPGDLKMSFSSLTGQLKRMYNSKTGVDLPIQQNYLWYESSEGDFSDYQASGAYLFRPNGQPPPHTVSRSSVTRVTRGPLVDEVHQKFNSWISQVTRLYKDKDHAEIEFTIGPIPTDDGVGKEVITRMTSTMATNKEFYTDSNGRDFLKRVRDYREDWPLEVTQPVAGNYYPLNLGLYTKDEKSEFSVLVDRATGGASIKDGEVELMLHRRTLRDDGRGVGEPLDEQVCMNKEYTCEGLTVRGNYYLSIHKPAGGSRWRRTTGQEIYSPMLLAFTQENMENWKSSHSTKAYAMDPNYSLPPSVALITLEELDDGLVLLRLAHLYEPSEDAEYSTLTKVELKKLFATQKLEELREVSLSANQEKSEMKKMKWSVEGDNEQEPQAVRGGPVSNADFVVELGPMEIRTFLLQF

Helix pomatia [8] = experiment: Inhibition of snail beta-mannosidase at 100 uM
[9] = biological target: T2, Tissue alpha-L-fucosidase (Bos taurus) (UniProt Q2KIM0); experiment: Inhibition of bovine kidney alpha-L-fucosidase at 100 uM
T2 sequence (whole entry): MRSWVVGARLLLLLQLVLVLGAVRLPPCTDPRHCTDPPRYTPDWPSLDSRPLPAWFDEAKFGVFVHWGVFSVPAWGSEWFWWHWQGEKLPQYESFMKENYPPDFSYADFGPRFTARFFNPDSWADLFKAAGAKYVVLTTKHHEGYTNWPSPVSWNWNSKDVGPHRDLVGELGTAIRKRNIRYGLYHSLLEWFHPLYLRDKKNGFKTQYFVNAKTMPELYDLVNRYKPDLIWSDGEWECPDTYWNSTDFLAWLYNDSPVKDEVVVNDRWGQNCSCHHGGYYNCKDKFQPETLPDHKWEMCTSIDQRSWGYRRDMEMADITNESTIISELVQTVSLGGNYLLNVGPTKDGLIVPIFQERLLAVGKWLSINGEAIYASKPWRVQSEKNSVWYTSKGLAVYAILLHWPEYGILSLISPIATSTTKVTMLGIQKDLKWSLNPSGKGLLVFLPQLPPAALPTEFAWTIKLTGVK

Sus scrofa [10] = organism: Sus scrofa; experiment: Inhibition of porcine kidney trehalase at 100 uM relative to control; type: tissue-based
Aspergillus niger [11] = experiment: Inhibition of Aspergillus niger amyloglucosidase at 100 uM relative to control
Penicillium decumbens [12] = experiment: Inhibition of Penicillium decumbens alpha-L-rhamnosidase at 100 uM relative to control
[13] = biological target: Beta-glucuronidase (Escherichia coli (strain K12)) (UniProt P05804); experiment: Inhibition of Escherichia coli beta-glucuronidase at 100 uM
Bos taurus [14] = organism: Bos taurus; experiment: Inhibition of bovine liver beta-glucuronidase at 100 uM
[15] = as §1; set-up: species or system Prunus dulcis
[16] = biological target: T1, Alpha-mannosidase (Canavalia ensiformis); experiment: Inhibition of jack bean alpha-mannosidase at 1000 uM
Helix pomatia [17] = experiment: Inhibition of snail beta-mannosidase at 1000 uM
[18] = biological target: T2, Tissue alpha-L-fucosidase (Bos taurus); experiment: Inhibition of bovine kidney alpha-L-fucosidase at 1000 uM; type: tissue-based
Sus scrofa [19] = organism: Sus scrofa; experiment: Inhibition of porcine kidney trehalase at 1000 uM relative to control; type: tissue-based
Aspergillus niger [20] = experiment: Inhibition of Aspergillus niger amyloglucosidase at 1000 uM relative to control
Penicillium decumbens [21] = experiment: Inhibition of Penicillium decumbens alpha-L-rhamnosidase at 1000 uM relative to control
[22] = biological target: Beta-glucuronidase (Escherichia coli (strain K12)) (UniProt P05804); experiment: Inhibition of Escherichia coli beta-glucuronidase at 1000 uM
Bos taurus [23] = organism: Bos taurus; experiment: Inhibition of bovine liver beta-glucuronidase at 1000 uM; type: tissue-based
[24] = Inhibition of Almond beta-glucosidase; set-up: species or system Prunus dulcis
[25] = Inhibition of human lysosomal alpha-galactosidase; type: subcellular, Lysosome
Prunus dulcis [26] = experiment: Inhibition of Almond beta-glucosidase at 412 uM relative to control
[27] = Inhibition of Almond beta-glucosidase using p-nitrophenyl glycoside as substrate preincubated for 5 mins followed by substrate addition and measured after 15 mins by spectrometry analysis; set-up: species or system Prunus dulcis
[28] = biological target: Alpha-galactosidase (Coffea arabica) (UniProt Q42656); experiment: Inhibition of coffee bean alpha-galactosidase at 1000 uM relative to control
Prunus dulcis [29] = experiment: Inhibition of almond beta-glucosidase at 1000 uM relative to control

Alpha-galactosidase, sequence (Q42656 whole entry): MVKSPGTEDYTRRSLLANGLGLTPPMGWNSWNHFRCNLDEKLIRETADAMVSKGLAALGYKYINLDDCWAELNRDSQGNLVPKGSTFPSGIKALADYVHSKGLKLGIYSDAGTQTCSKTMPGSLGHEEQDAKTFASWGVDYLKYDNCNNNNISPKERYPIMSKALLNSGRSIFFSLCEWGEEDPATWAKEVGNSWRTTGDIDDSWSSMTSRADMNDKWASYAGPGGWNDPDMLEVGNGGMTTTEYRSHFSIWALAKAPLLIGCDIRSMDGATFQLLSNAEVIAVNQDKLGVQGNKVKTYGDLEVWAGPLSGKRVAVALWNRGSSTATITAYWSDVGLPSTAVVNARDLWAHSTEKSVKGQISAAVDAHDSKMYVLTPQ
Beta-glucuronidase (Escherichia coli (strain K12)), sequence (P05804 whole entry, looked up): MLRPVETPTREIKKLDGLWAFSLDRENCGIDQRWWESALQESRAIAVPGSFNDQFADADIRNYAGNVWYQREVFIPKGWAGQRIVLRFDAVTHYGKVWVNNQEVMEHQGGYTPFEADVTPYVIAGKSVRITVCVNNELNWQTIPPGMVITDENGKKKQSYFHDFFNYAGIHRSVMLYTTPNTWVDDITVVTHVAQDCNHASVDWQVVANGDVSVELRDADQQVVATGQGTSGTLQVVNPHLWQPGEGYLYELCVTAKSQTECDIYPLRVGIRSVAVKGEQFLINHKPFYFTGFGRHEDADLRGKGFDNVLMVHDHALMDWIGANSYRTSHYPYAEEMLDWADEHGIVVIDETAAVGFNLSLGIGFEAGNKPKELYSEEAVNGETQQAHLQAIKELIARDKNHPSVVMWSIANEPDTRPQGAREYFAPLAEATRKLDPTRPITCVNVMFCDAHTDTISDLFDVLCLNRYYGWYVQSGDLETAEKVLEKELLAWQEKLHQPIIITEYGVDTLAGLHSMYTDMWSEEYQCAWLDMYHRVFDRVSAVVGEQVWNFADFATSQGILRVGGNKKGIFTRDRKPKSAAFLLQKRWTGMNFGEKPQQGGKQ
Alpha-galactosidase (Coffea arabica), sequence (Q42656 16-378 limits assumed): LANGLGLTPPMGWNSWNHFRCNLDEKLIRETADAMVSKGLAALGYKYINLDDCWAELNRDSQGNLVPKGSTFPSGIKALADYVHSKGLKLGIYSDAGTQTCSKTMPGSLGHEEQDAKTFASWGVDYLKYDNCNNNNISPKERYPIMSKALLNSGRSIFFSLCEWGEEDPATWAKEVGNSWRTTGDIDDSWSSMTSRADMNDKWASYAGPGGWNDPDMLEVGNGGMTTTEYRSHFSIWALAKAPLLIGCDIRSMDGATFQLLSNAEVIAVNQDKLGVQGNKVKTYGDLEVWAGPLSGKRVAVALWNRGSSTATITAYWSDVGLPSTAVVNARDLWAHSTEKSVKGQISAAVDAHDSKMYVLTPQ

O=C(O)C(F)(F)F.OC[C@H]1N[C@H](CCCCCCCCCc2ccc(O)cc2)[C@H](O)[C@@H](O)[C@@H]1O
IC50 [1]: 0.4 µM | IC50 [2]: 0.95 µM | IC50 (Alpha-glucosidase): 95 µM | IC50 [3]: 0.25 µM | inhibition (Prunus dulcis [4]): 33.1% | IC50 [5]: 25 µM | IC50 (Alpha-galactosidase): 22 µM | inhibition (Homo sapiens): 42.9% | IC50 [6]: 4.1 µM | inhibition [7]: inactive | inhibition (Helix pomatia [8]): inactive | inhibition [9]: inactive | inhibition (Sus scrofa [10]): 13.2% | inhibition (Aspergillus niger [11]): 16.4% | inhibition (Penicillium decumbens [12]): 10.9% | inhibition [13]: inactive | inhibition (Bos taurus [14]): inactive

CCCCCCCC[C@H]1N[C@H](CO)[C@@H](O)[C@H](O)[C@H]1O
IC50 [1]: 0.7 µM | IC50 [2]: 1.7 µM | IC50 (Alpha-glucosidase): 71 µM | IC50 [3]: 0.6 µM | IC50 [15]: 175 µM | IC50 [5]: 195 µM | IC50 (Alpha-galactosidase): 3.3 µM | IC50 [6]: 52 µM | inhibition [16]: inactive | inhibition (Helix pomatia [17]): inactive | inhibition [18]: inactive | inhibition (Sus scrofa [19]): 43.2% | inhibition (Aspergillus niger [20]): 38.8% | inhibition (Penicillium decumbens [21]): 43.8% | inhibition [22]: inactive | inhibition (Bos taurus [23]): inactive | IC50 [24]: 175 µM | IC50 [25]: 13 µM

OC[C@H]1N[C@H]([C@H](O)C(O)CCCCCCC(O)C(O)c2ccccc2)[C@@H](O[C@@H]2O[C@H](CO)[C@@H](O)[C@H](O)[C@H]2O)[C@H]1O (some centres undefined)
IC50 [24]: 68 µM

OC[C@H]1N[C@H]([C@H](O)C(O)CCCCCC(O)C(O)C(O)c2ccccc2)[C@@H](O[C@@H]2O[C@H](CO)[C@@H](O)[C@H](O)[C@H]2O)[C@H]1O (some centres undefined)
IC50 [24]: 15 µM

OCCCCCCCCCCCC[C@H](O)[C@@H]1N[C@@H](CO)[C@H](O)[C@H]1O
inhibition (Prunus dulcis [26]): 15.2%

OC[C@H]1N[C@H](CO)[C@@H](O)[C@H]1O
IC50 [24]: 40 µM

OC[C@H]1N[C@H](CCCCCCC(O)C(O)Cc2ccc(O)cc2)[C@H](O)[C@@H](O)[C@@H]1O (some centres undefined)
IC50 [27]: 0.15 µM

OC[C@H]1N[C@H](C(O)CCCCCCC(O)C(O)c2ccccc2)[C@H](O)[C@@H](O)[C@H]1O (some centres undefined)
inhibition [28]: 76%

OC[C@H]1N[C@H]([C@H](O)CCCCCC[C@H](O)[C@@H](O)Cc2ccc(O)cc2)[C@@H](O)[C@@H]1O
IC50 [24]: 0.92 µM

OCCCCCC/C=C\C[C@H](O)[C@@H](O)[C@H]1N[C@H](CO)[C@H](O)[C@@H]1O[C@@H]1O[C@H](CO)[C@@H](O)[C@H](O)[C@H]1O
IC50 (Alpha-galactosidase): 8 µM | inhibition (Prunus dulcis [29]): < 50%
